Test results published in PubChem BioAssay (NCI).
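Results reflect a 48-hour exposure of cells in 96-well plates to compound at five concentrations. At the TGI there is no net growth.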

How the values were obtained:
Assay in all cases: DTP human tumour cell line panel, 48 h
ACHN renal = test system: ACHN renal
T-47D breast = test system: T-47D breast
SK-MEL-28 melanoma = test system: SK-MEL-28 melanoma
CAKI-1 renal = test system: CAKI-1 renal
SR leukemia = test system: SR leukemia
DU-145 prostate = test system: DU-145 prostate
OVCAR-4 ovarian = test system: OVCAR-4 ovarian
NCI-H23 lung = test system: NCI-H23 lung
MDA-N = test system: MDA-N
HOP-62 NSCLC = test system: HOP-62 NSCLC
NCI/ADR-RES ovarian = test system: NCI/ADR-RES ovarian
UACC-62 melanoma = test system: UACC-62 melanoma
RXF 393 renal = test system: RXF 393 renal
786-0 renal = test system: 786-0 renal
MDA-MB-435 = test system: MDA-MB-435
MCF7 breast = test system: MCF7 breast
HL-60(TB) leukemia = test system: HL-60(TB) leukemia
RPMI-8226 leukemia = test system: RPMI-8226 leukemia
SN12C renal = test system: SN12C renal
SNB-19 CNS = test system: SNB-19 CNS
OVCAR-5 ovarian = test system: OVCAR-5 ovarian
MOLT-4 leukemia = test system: MOLT-4 leukemia
TK-10 renal = test system: TK-10 renal
CCRF-CEM leukemia = test system: CCRF-CEM leukemia
EKVX NSCLC = test system: EKVX NSCLC
U251 CNS = test system: U251 CNS
SF-295 CNS = test system: SF-295 CNS
A498 renal = test system: A498 renal
M14 melanoma = test system: M14 melanoma
NCI-H460 lung = test system: NCI-H460 lung
NCI-H226 lung = test system: NCI-H226 lung
MALME-3M melanoma = test system: MALME-3M melanoma
SK-MEL-2 melanoma = test system: SK-MEL-2 melanoma
PC-3 prostate = test system: PC-3 prostate
UACC-257 melanoma = test system: UACC-257 melanoma
HT29 colon = test system: HT29 colon
BT-549 breast = test system: BT-549 breast
UO-31 renal = test system: UO-31 renal
HS 578T breast = test system: HS 578T breast
SK-MEL-5 melanoma = test system: SK-MEL-5 melanoma
LOX IMVI melanoma = test system: LOX IMVI melanoma
SW-620 colon = test system: SW-620 colon
IGROV1 ovarian = test system: IGROV1 ovarian
HCT-116 colon = test system: HCT-116 colon
SF-268 CNS = test system: SF-268 CNS
KM12 colon = test system: KM12 colon
A549 NSCLC = test system: A549 NSCLC
NCI-H522 lung = test system: NCI-H522 lung
HCT-15 colon = test system: HCT-15 colon
HCC-2998 colon = test system: HCC-2998 colon
MDA-MB-231 breast = test system: MDA-MB-231 breast
K-562 leukemia = test system: K-562 leukemia
COLO 205 colon = test system: COLO 205 colon
HOP-92 NSCLC = test system: HOP-92 NSCLC
SK-OV-3 ovarian = test system: SK-OV-3 ovarian
SF-539 CNS = test system: SF-539 CNS
OVCAR-8 ovarian = test system: OVCAR-8 ovarian
OVCAR-3 ovarian = test system: OVCAR-3 ovarian

SMILES: O=C(NC1=NCC(CN2CCN(c3ccccc3)CC2)O1)Nc1ccccc1 (stereo not given)
- TGI (ACHN renal): > 100 µM
- TGI (T-47D breast): > 100 µM
- TGI (SK-MEL-28 melanoma): > 100 µM
- TGI (CAKI-1 renal): > 100 µM
- TGI (SR leukemia): > 100 µM
- TGI (DU-145 prostate): > 100 µM
- TGI (OVCAR-4 ovarian): > 100 µM
- TGI (NCI-H23 lung): > 100 µM
- TGI (MDA-N): > 100 µM
- TGI (HOP-62 NSCLC): > 100 µM
- TGI (NCI/ADR-RES ovarian): > 100 µM
- TGI (UACC-62 melanoma): > 100 µM
- TGI (RXF 393 renal): > 100 µM
- TGI (786-0 renal): > 100 µM
- TGI (MDA-MB-435): > 100 µM
- TGI (MCF7 breast): > 100 µM
- TGI (HL-60(TB) leukemia): > 100 µM
- TGI (RPMI-8226 leukemia): > 100 µM
- TGI (SN12C renal): > 100 µM
- TGI (SNB-19 CNS): > 100 µM
- TGI (OVCAR-5 ovarian): > 100 µM
- TGI (MOLT-4 leukemia): > 100 µM
- TGI (TK-10 renal): > 100 µM
- TGI (CCRF-CEM leukemia): > 100 µM
- TGI (EKVX NSCLC): > 100 µM
- TGI (U251 CNS): > 100 µM
- TGI (SF-295 CNS): > 100 µM
- TGI (A498 renal): > 100 µM
- TGI (M14 melanoma): > 100 µM
- TGI (NCI-H460 lung): > 100 µM
- TGI (NCI-H226 lung): > 100 µM
- TGI (MALME-3M melanoma): > 100 µM
- TGI (SK-MEL-2 melanoma): > 100 µM
- TGI (PC-3 prostate): > 100 µM
- TGI (UACC-257 melanoma): > 100 µM
- TGI (HT29 colon): > 100 µM
- TGI (BT-549 breast): > 100 µM
- TGI (UO-31 renal): > 100 µM
- TGI (HS 578T breast): > 100 µM
- TGI (SK-MEL-5 melanoma): > 100 µM
- TGI (LOX IMVI melanoma): > 100 µM
- TGI (SW-620 colon): > 100 µM
- TGI (IGROV1 ovarian): > 100 µM
- TGI (HCT-116 colon): > 100 µM
- TGI (SF-268 CNS): > 100 µM
- TGI (KM12 colon): > 100 µM
- TGI (A549 NSCLC): > 100 µM
- TGI (NCI-H522 lung): > 100 µM
- TGI (HCT-15 colon): > 100 µM
- TGI (HCC-2998 colon): > 100 µM
- TGI (MDA-MB-231 breast): > 100 µM
- TGI (K-562 leukemia): > 100 µM
- TGI (COLO 205 colon): > 100 µM
- TGI (HOP-92 NSCLC): > 100 µM
- TGI (SK-OV-3 ovarian): > 100 µM

SMILES: COC1=C(OC)C(=O)C(Cc2c(Cl)nc3sc(C)cn23)=C(C)C1=O
- TGI (ACHN renal): 40 µM
- TGI (SF-539 CNS): 34.6 µM
- TGI (T-47D breast): > 100 µM
- TGI (SK-MEL-28 melanoma): 32.2 µM
- TGI (CAKI-1 renal): 72.7 µM
- TGI (SR leukemia): 51 µM
- TGI (DU-145 prostate): 61 µM
- TGI (OVCAR-4 ovarian): 20.6 µM
- TGI (NCI-H23 lung): 42.6 µM
- TGI (MDA-N): 32.8 µM
- TGI (HOP-62 NSCLC): 36 µM
- TGI (NCI/ADR-RES ovarian): 38.1 µM
- TGI (UACC-62 melanoma): 25.6 µM
- TGI (RXF 393 renal): 41.7 µM
- TGI (786-0 renal): 38.8 µM
- TGI (MDA-MB-435): 35.3 µM
- TGI (MCF7 breast): 63.5 µM
- TGI (OVCAR-8 ovarian): 41.2 µM
- TGI (RPMI-8226 leukemia): 31.8 µM
- TGI (SN12C renal): 30.5 µM
- TGI (SNB-19 CNS): 41.3 µM
- TGI (OVCAR-5 ovarian): 35.9 µM
- TGI (MOLT-4 leukemia): 4.21 µM
- TGI (TK-10 renal): 31.7 µM
- TGI (CCRF-CEM leukemia): 8.73 µM
- TGI (EKVX NSCLC): 35.6 µM
- TGI (U251 CNS): 36 µM
- TGI (SF-295 CNS): 32.1 µM
- TGI (A498 renal): 65.5 µM
- TGI (M14 melanoma): 34.5 µM
- TGI (NCI-H460 lung): 37.8 µM
- TGI (MALME-3M melanoma): 26.5 µM
- TGI (SK-MEL-2 melanoma): 76.9 µM
- TGI (PC-3 prostate): 34.9 µM
- TGI (UACC-257 melanoma): 22.8 µM
- TGI (HT29 colon): 36.3 µM
- TGI (BT-549 breast): 34.2 µM
- TGI (UO-31 renal): 42.9 µM
- TGI (HS 578T breast): 66.4 µM
- TGI (SK-MEL-5 melanoma): 23.9 µM
- TGI (LOX IMVI melanoma): 34.1 µM
- TGI (SW-620 colon): 47.8 µM
- TGI (IGROV1 ovarian): 35.5 µM
- TGI (HCT-116 colon): 55.9 µM
- TGI (SF-268 CNS): 37 µM
- TGI (KM12 colon): 27.8 µM
- TGI (OVCAR-3 ovarian): 26.1 µM
- TGI (A549 NSCLC): 41.8 µM
- TGI (NCI-H522 lung): 30.2 µM
- TGI (HCT-15 colon): 67.9 µM
- TGI (HCC-2998 colon): 39 µM
- TGI (MDA-MB-231 breast): 41.8 µM
- TGI (K-562 leukemia): 45.5 µM
- TGI (COLO 205 colon): 34.7 µM
- TGI (SK-OV-3 ovarian): 32 µM
